Results on 24 compounds are retold here after US20120077828A1, “CHEMICAL COMPOUNDS” (priority 2010, published 2012).

For this experiment, the target named is T1, PERK (Homo sapiens, UniProt Q9NZJ5).
T1 construct: GST-PERK (536-1116) cytoplasmic domain was purchased from Invitrogen; purchased Invitrogen PV5106
T1 sequence (Q9NZJ5 536-1116): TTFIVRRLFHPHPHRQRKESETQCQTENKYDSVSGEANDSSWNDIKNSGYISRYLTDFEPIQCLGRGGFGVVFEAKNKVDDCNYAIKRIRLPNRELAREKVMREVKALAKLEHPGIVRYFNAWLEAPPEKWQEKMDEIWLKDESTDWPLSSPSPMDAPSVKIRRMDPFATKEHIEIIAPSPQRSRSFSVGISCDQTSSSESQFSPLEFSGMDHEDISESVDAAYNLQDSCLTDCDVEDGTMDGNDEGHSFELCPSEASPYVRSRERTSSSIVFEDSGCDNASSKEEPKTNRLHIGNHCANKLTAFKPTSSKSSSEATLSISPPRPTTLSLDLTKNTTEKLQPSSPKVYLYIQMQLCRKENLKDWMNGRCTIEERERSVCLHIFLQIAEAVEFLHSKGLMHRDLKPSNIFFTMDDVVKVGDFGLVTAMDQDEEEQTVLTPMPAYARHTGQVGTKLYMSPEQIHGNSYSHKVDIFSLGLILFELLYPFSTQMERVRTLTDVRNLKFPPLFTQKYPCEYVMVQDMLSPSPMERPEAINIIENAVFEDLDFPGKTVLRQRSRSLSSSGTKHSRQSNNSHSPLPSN
The experiment can be described thus: PKR-like Endoplasmic Reticulum Kinase (PERK) Assay (HTRF Format). It counts as biochemical. The following applies: average, in at least one set of experimental runs; read-out: average pIC50 value against PERK (converted). The procedure:
PKR-like Endoplasmic Reticulum Kinase (PERK) Assay (HTRF Format)
Source of substrate: elF2α: 6-His-Full-length human elF2α is purified from baculovirus expression in Sf9 insect cells. The elF2 protein is buffer exchanged by dialysis into PBS, chemically modified by NHS-LC-Biotin and then buffer exchanged by dialysis into 50 mm TRIS pH 7.2/250 mM NaCl/5 mM DTT. Protein is aliquoted and stored at −80° C.
Assays were performed by adding GST-PERK solution to assay plates containing compounds and pre-incubated for 30 minutes at room temperature. The reaction is initiated by the addition of ATP and EIF2α substrate solution. Quench solution is added following a one hour incubation at room temperature. The plates are covered for 2 hours at room temperature prior to determination of signal. The resulting signal is quantified on a Viewlux Reader (PerkinElmer). The APC Signal is normalized to the Europium signal by transforming the data through an APC/Eu calculation.
Compounds under analysis were dissolved in DMSO to 1.0 mM and serially diluted 1 to 3 with DMSO through eleven dilutions. 0.1 μl of each concentration was transferred to the corresponding well of an assay plate. This creates a final compound concentration range from 0.00017 to 10 μM.
The data for concentration response curves were plotted as % Inhibition calculated with the data reduction formula 100*(1−(U1−C2)/(C1−C2)) versus concentration of compound where U is the unknown value, C1 is the average control value obtained for 1% DMSO, and C2 is the average control value obtained for 0.1 M EDTA. Data were fitted with a curve described by:
where A is the minimum y, B is the maximum y concentration [M], D is the slope factor, and x is the log10 of the compound.
In the above data, pIC50 is defined as −log(IC50) where the IC50 value is expressed in molar units.
In general terms: TR-FRET usually uses a lanthanide donor and a delayed reading to cut background.

Where only a bound is given, the exact number is not on record here.

`Cn1nc(N)c2c(-c3ccc4c(c3)CCN4C(=O)Cc3cccc(C(F)(F)F)c3)cncc21` [Example 143, 1-methyl-4-(1-{[3-(trifluoromethyl)phenyl]acetyl}-2,3-dihydro-1H-indol-5-yl)-1H-pyrazolo[3,4-c]pyridin-3-amine]: the IC50 was no more than 1 nM.
With `Nc1nccc2scc(-c3ccc4c(c3)CCN4C(=O)Cc3cccc(Cl)c3)c12` [Example 22, 3-{1-[(3-chlorophenyl)acetyl]-2,3-dihydro-1H-indol-5-yl}thieno[3,2-c]pyridin-4-amine] the figure was no more than 2.51 nM.
With `Cc1cccc(CC(=O)N2CCc3cc(-c4nn(C(C)C)c5ncnc(N)c45)ccc32)c1` [Example 82, 1-(1-methylethyl)-3-{1-[(3-methylphenyl)acetyl]-2,3-dihydro-1H-indol-5-yl}-1H-pyrazolo[3,4-d]pyrimidin-4-amine] the figure was no more than 2.51 nM.
For `Cn1cc(-c2ccc3c(c2)CCN3C(=O)Cc2cc(F)cc(F)c2F)c2c(N)ncnc21` [Example 90, 7-methyl-5-{1-[(2,3,5-trifluorophenyl)acetyl]-2,3-dihydro-1H-indol-5-yl}-7H-pyrrolo[2,3-d]pyrimidin-4-amine] the value was no more than 0.316 nM; for `Cc1cccc(CC(=O)N2CCc3c2ccc(-c2cn(C)c4ncnc(N)c24)c3F)n1` [Example 136, 5-{4-fluoro-1-[(6-methyl-2-pyridinyl)acetyl]-2,3-dihydro-1H-indol-5-yl}-7-methyl-7H-pyrrolo[2,3-d]pyrimidin-4-amine], no more than 1 nM.
Turning to `Cc1cccc(CC(=O)N2CCc3cc(-c4nn(C)c5ncnc(N)c45)ccc32)c1F` [Example 74, 3-{1-[(2-fluoro-3-methylphenyl)acetyl]-2,3-dihydro-1H-indol-5-yl}-1-methyl-1H-pyrazolo[3,4-d]pyrimidin-4-amine], the IC50 was no more than 1 nM.
For `Nc1ncc(-c2cn[nH]c2)c2scc(-c3ccc4c(c3)CCN4C(=O)Cc3ccccc3)c12` [Example 13, 3-[1-(phenylacetyl)-2,3-dihydro-1H-indol-5-yl]-7-(1H-pyrazol-4-yl)thieno[3,2-c]pyridin-4-amine] the value was no more than 1 nM.
Turning to `Cc1cccc(CC(=O)N2CCc3cc(-c4cn(C)c5ncnc(N)c45)ccc32)c1C` [Example 81, 5-{1-[(2,3-dimethylphenyl)acetyl]-2,3-dihydro-1H-indol-5-yl}-7-methyl-7H-pyrrolo[2,3-d]pyrimidin-4-amine], the IC50 is no more than 1 nM.
For `Cc1ccccc1CC(=O)N1CCc2cc(-c3cn(C)c4ncnc(N)c34)ccc21` [Example 33, 7-methyl-5-{1-[(2-methylphenyl)acetyl]-2,3-dihydro-1H-indol-5-yl}-7H-pyrrolo[2,3-d]pyrimidin-4-amine] the value was no more than 0.316 nM; for `Cn1cc(-c2ccc3c(c2F)CCN3C(=O)Cc2cccc(C(F)(F)F)n2)c2c(N)ncnc21` [Example 137, 5-(4-fluoro-1-{[6-(trifluoromethyl)-2-pyridinyl]acetyl}-2,3-dihydro-1H-indol-5-yl)-7-methyl-7H-pyrrolo[2,3-d]pyrimidin-4-amine], no more than 1 nM; for `Cc1cccc(CC(=O)N2CCc3cc(-c4cn(C5CNC5)c5ncnc(N)c45)ccc32)c1` [Example 92, 7-(3-azetidinyl)-5-{1-[(3-methylphenyl)acetyl]-2,3-dihydro-1H-indol-5-yl}-7H-pyrrolo[2,3-d]pyrimidin-4-amine], no more than 1 nM.
With `Cn1cc(-c2ccc3c(c2F)CCN3C(=O)Cc2cc(F)ccc2F)c2c(N)ncnc21` [Example 114, 5-{1-[(2,5-difluorophenyl)acetyl]-4-fluoro-2,3-dihydro-1H-indol-5-yl}-7-methyl-7H-pyrrolo[2,3-d]pyrimidin-4-amine] the figure was no more than 0.316 nM; with `Cc1cccc(CC(=O)N2CCc3cc(-c4csc5ncnc(N)c45)ccc32)c1` [Example 64, 5-{1-[(3-methylphenyl)acetyl]-2,3-dihydro-1H-indol-5-yl}thieno[2,3-d]pyrimidin-4-amine], no more than 1 nM; with `Nc1ncnc2scc(-c3ccc4c(c3)CCN4C(=O)Cc3cc(F)ccc3F)c12` [Example 31, 5-{1-[(2,5-difluorophenyl)acetyl]-2,3-dihydro-1H-indol-5-yl}thieno[2,3-d]pyrimidin-4-amine], no more than 1 nM.
For `Cc1cc(C)n(CC(=O)N2CCc3c2ccc(-c2cn(C)c4ncnc(N)c24)c3F)n1` [Example 138, 5-{1-[(3,5-dimethyl-1H-pyrazol-1-yl)acetyl]-4-fluoro-2,3-dihydro-1H-indol-5-yl}-7-methyl-7H-pyrrolo[2,3-d]pyrimidin-4-amine] the value was no more than 2.51 nM; for `Cn1cc(-c2ccc3c(c2)CCN3C(=O)Cc2cc(F)cc(Cl)c2)c2c(N)ncnc21` [Example 53, 5-{1-[(3-chloro-5-fluorophenyl)acetyl]-2,3-dihydro-1H-indol-5-yl}-7-methyl-7H-pyrrolo[2,3-d]pyrimidin-4-amine], no more than 0.316 nM.
In the case of `Nc1nccc2scc(-c3ccc4c(c3)CCN4C(=O)Cc3cc(F)ccc3F)c12` [Example 6, 3-{1-[(2,5-difluorophenyl)acetyl]-2,3-dihydro-1H-indol-5-yl}thieno[3,2-c]pyridin-4-amine], the IC50 is no more than 2.51 nM.
With `Nc1ncc(Cl)c2occ(-c3ccc4c(c3)CCN4C(=O)Cc3cc(F)ccc3F)c12` [Example 131, 7-chloro-3-{1-[(2,5-difluorophenyl)acetyl]-2,3-dihydro-1H-indol-5-yl}furo[3,2-c]pyridin-4-amine] the figure was no more than 1 nM; with `Cn1cc(-c2ccc3c(c2)CCN3C(=O)Cc2cc(Cl)ccc2F)c2c(N)ncnc21` [Example 100, 5-{1-[(5-chloro-2-fluorophenyl)acetyl]-2,3-dihydro-1H-indol-5-yl}-7-methyl-7H-pyrrolo[2,3-d]pyrimidin-4-amine], no more than 0.316 nM; with `NCCc1cnc(N)c2c(-c3ccc4c(c3F)CCN4C(=O)Cc3cc(F)ccc3F)coc12` [Example 146, 7-(2-aminoethyl)-3-{1-[(2,5-difluorophenyl)acetyl]-4-fluoro-2,3-dihydro-1H-indol-5-yl}furo[3,2-c]pyridin-4-amine], no more than 2.51 nM.
For `Cn1cc(-c2cnc(N)c3c(-c4ccc5c(c4)CCN5C(=O)Cc4ccccc4)csc23)cn1` [Example 14, 7-(1-methyl-1H-pyrazol-4-yl)-3-[1-(phenylacetyl)-2,3-dihydro-1H-indol-5-yl]thieno[3,2-c]pyridin-4-amine] the value was no more than 2.51 nM.
For the compound `Nc1ncnc2[nH]cc(-c3ccc4c(c3)CCN4C(=O)Cc3cccc(C(F)(F)F)c3)c12` [Example 148, 5-(1-{[3-(trifluoromethyl)phenyl]acetyl}-2,3-dihydro-1H-indol-5-yl)-1H-pyrrolo[2,3-d]pyrimidin-4-amine], the IC50 is no more than 0.316 nM.
For `Cc1cccc(CC(=O)N2CCc3cc(-c4cn(C)c5ncnc(N)c45)ccc32)c1F` [Example 71, 5-{1-[(2-fluoro-3-methylphenyl)acetyl]-2,3-dihydro-1H-indol-5-yl}-7-methyl-7H-pyrrolo[2,3-d]pyrimidin-4-amine] the value was no more than 0.316 nM; for `Nc1ncnc2c1c(-c1ccc3c(c1)CCN3C(=O)Cc1cccc(C(F)(F)F)c1)cn2CCN1CCOCC1` [Example 127, 7-[2-(4-morpholinyl)ethyl]-5-(1-{[3-(trifluoromethyl)phenyl]acetyl}-2,3-dihydro-1H-indol-5-yl)-7H-pyrrolo[2,3-d]pyrimidin-4-amine], no more than 0.316 nM.
